DBAASP
Converted amounts (≈) assume the structure as drawn.

Columns and labels:
Test in all cases: ≥ marks a high value that may be exact or a test limit, other limits are often not marked, values filed in µg/mL are converted to µM
[1] = tested on: Micrococcus luteus ATCC 9341
[2] = tested on: Streptococcus pyogenes ATCC 19615
[3] = tested on: Enterococcus faecalis ATCC 29212
[4] = tested on: Escherichia coli ATCC 25922
[5] = tested on: Escherichia coli ATCC 35218
[6] = tested on: Staphylococcus epidermidis ATCC 12228
[7] = tested on: Bacillus cereus ATCC 11778
Escherichia coli O157 = tested on: Escherichia coli O157
[8] = tested on: Pseudomonas aeruginosa ATCC 9027
[9] = tested on: Salmonella enterica subsp. arizonae ATCC 13314
Staphylococcus aureus = tested on: Staphylococcus aureus
Escherichia coli JM109 = tested on: Escherichia coli JM109
[10] = tested on: Staphylococcus aureus ATCC 6538P
[11] = tested on: Cutibacterium acnes ATCC 50247
[12] = tested on: Staphylococcus aureus ATCC 25923
[13] = tested on: Acinetobacter baumannii NM75
[14] = tested on: Candida albicans ATCC 90028
[15] = tested on: Cutibacterium acnes ATCC 31766
[16] = tested on: Cutibacterium acnes ATCC 11828
[17] = tested on: Acinetobacter baumannii NM35
[18] = tested on: Cutibacterium acnes ATCC 18380
[19] = tested on: Cutibacterium acnes ATCC 32548
[20] = tested on: Cutibacterium acnes ATCC 29903
[21] = tested on: Escherichia coli ATCC 25726
[22] = tested on: Cutibacterium acnes ATCC 33257
[23] = tested on: Acinetobacter baumannii NM8
[24] = tested on: Acinetobacter baumannii NM124
[25] = tested on: Cutibacterium acnes ATCC 15725
[26] = tested on: Acinetobacter baumannii NM109
[27] = tested on: Escherichia coli PCM 2057
[28] = tested on: Staphylococcus aureus PCM 1944
Candida albicans = tested on: Candida albicans
[29] = tested on: Staphylococcus aureus FDA 209P JC-1
[30] = tested on: Bacillus subtilis ATCC 6633
[31] = tested on: Escherichia coli NIHJ JC-2
[32] = tested on: Streptococcus mutans UA159
[33] = tested on: Pseudomonas aeruginosa PAK
[34] = tested on: Streptococcus sanguinis NY101
[35] = tested on: Streptococcus mitis ATCC 903
[36] = tested on: Streptococcus gordonii Challis DL1

In the case of `CC(C)C[C@H](NC(=O)[C@H](CC(C)C)NC(=O)[C@H](CCC(N)=O)NC(=O)[C@H](Cc1ccc(O)cc1)NC(=O)[C@H](CCCN=C(N)N)NC(=O)CNC(=O)[C@H](C)NC(=O)[C@H](C)NC(=O)[C@@H](NC(=O)[C@H](CO)NC(=O)[C@H](Cc1ccc(O)cc1)NC(=O)[C@@H](NC(=O)[C@H](CCCCN)NC(=O)[C@H](Cc1ccc(O)cc1)NC(=O)[C@H](CCCN=C(N)N)NC(=O)[C@@H]1CCCN1C(=O)[C@H](CC(C)C)NC(=O)[C@H](Cc1ccc(O)cc1)NC(=O)[C@@H](NC(=O)[C@@H](N)CCCCN)C(C)C)C(C)C)[C@@H](C)O)C(N)=O` [KVYLPRYKVYSTAAGRYQLL], the MIC [1] is reported as ≥ 150 µM, the MIC [2] is reported as ≥ 150 µM and the MIC [3] is reported as > 150 µM. For the same molecule, the MIC [4] was > 150 µM, the MIC [5] was ≥ 150 µM and the MIC [6] was > 150 µM. For the same molecule, the MIC [7] was ≥ 150 µM, the MIC (Escherichia coli O157) was ≥ 150 µM and the MIC [8] was > 150 µM. For the same molecule, the MIC [9] was ≥ 150 µM.

For `CC[C@H](C)[C@H](NC(=O)[C@H](C)NC(=O)[C@H](CC(C)C)NC(=O)[C@H](CS)NC(=O)[C@H](Cc1cnc[nH]1)NC(=O)[C@H](C)N)C(=O)NCC(=O)N[C@@H](CCCN=C(N)N)C(=O)N[C@@H](CCCN=C(N)N)C(N)=O` [AHCLAIGRR], the MIC (Staphylococcus aureus) was > 64.2 µM, the MIC (Escherichia coli JM109) was 16.1 µM and the MIC [10] was 6.02 µM.

In the case of `CC[C@H](C)[C@H](NC(=O)[C@@H](NC(=O)CN)C(C)C)C(=O)N[C@@H](CCCCN)C(=O)N[C@@H](CO)C(=O)N[C@H](C(=O)N[C@@H](CC(C)C)C(=O)N[C@@H](CCCCN)C(=O)NCC(=O)N[C@H](C(=O)N[C@@H](C)C(=O)N[C@@H](CCCCN)C(=O)N[C@H](C(=O)N[C@H](C(=O)N[C@@H](C)C(=O)N[C@@H](CC(C)C)C(=O)NCC(=O)N[C@@H](CCSC)C(=O)N[C@@H](CC(C)C)C(N)=O)C(C)C)[C@@H](C)O)C(C)C)C(C)C` [GVIKSVLKGVAKTVALGML], the MIC [11] is reported as 6 µM (≈ 11.3 µg/mL), the MIC [12] is reported as 12.5 µM (≈ 23.5 µg/mL) and the MIC [13] is reported as 12.5 µM (≈ 23.5 µg/mL). The MIC [14] was ≥ 50 µM, the MIC [15] was 6 µM (≈ 11.3 µg/mL) and the MIC [16] was 12.5 µM (≈ 23.5 µg/mL). The MIC [17] was 6 µM (≈ 11.3 µg/mL), the MIC [18] was ≥ 50 µM and the MIC [19] was 12.5 µM (≈ 23.5 µg/mL). It also gave an MIC [20] of 25 µM (≈ 47.1 µg/mL), an MIC [21] of 12.5 µM (≈ 23.5 µg/mL) and an MIC [22] of 12.5 µM (≈ 23.5 µg/mL). For the same molecule, the MIC [23] was 6 µM (≈ 11.3 µg/mL), the MIC [24] was 12.5 µM (≈ 23.5 µg/mL) and the MIC [25] was 12.5 µM (≈ 23.5 µg/mL). For the same molecule, the MIC [26] was 12.5 µM (≈ 23.5 µg/mL).

In the case of `CC[C@H](C)[C@H](NC(=O)[C@H](CC(N)=O)NC(=O)[C@@H](NC(=O)[C@H](C)N)C(C)C)C(=O)N1CCC[C@H]1C(=O)N[C@@H](Cc1ccccc1)C(=O)N[C@@H](CCCCN)C(=O)N[C@H](C(=O)N[C@@H](Cc1cnc[nH]1)C(=O)N[C@@H](Cc1ccccc1)C(=O)N[C@@H](CCCN=C(N)N)C(=O)O)C(C)C` [AVNIPFKVHFR], the MIC [27] is reported as ≥ 753 µM and the MIC [28] is reported as ≥ 753 µM.

With `CC[C@H](C)[C@H](NC(=O)CNC(=O)[C@H](C)NC(=O)[C@H](CC(C)C)NC(=O)[C@@H](NC(=O)[C@@H]1CCCN1C(=O)[C@H](CC(C)C)NC(=O)[C@@H](N)Cc1ccccc1)C(C)C)C(=O)N[C@@H](C)C(=O)N[C@@H](C)C(=O)N[C@@H](CCCCN)C(=O)N[C@H](C(=O)N[C@H](C(=O)N1CCC[C@H]1C(=O)N[C@@H](C)C(=O)N[C@@H](CC(C)C)C(=O)N[C@@H](Cc1ccccc1)C(=O)N[C@H]1CSSC[C@@H](C(=O)O)NC(=O)[C@H](CCCCN)NC(=O)[C@H](CCCCN)NC(=O)[C@H]([C@@H](C)O)NC(=O)[C@H]([C@@H](C)CC)NC(=O)[C@H](CCCCN)NC1=O)C(C)C)C(C)C` [FLPVLAGIAAKVVPALFCKITKKC] the MIC (Candida albicans) was > 51.4 µM, the MIC [29] was 3.16 µM (≈ 7.99 µg/mL) and the MIC [30] was 0.79 µM (≈ 2 µg/mL). For the same molecule, the MIC [31] was 13.4 µM (≈ 34 µg/mL).

`CC[C@H](C)[C@H](N)C(=O)N[C@@H](CCCCN)C(=O)N[C@@H](CCC(N)=O)C(=O)N[C@@H](CC(C)C)C(=O)N[C@@H](CC(C)C)C(=O)N[C@@H](Cc1cnc[nH]1)C(=O)N[C@@H](Cc1ccccc1)C(=O)N[C@@H](Cc1ccccc1)C(=O)N[C@@H](CCC(N)=O)C(=O)N[C@@H](CCCN=C(N)N)C(=O)N[C@@H](Cc1ccccc1)C(=O)NCC(=O)NCC(=O)NCC(=O)N[C@@H](Cc1ccccc1)C(=O)N[C@H](C(=O)N[C@@H](CCCCN)C(=O)N[C@@H](Cc1cnc[nH]1)C(=O)N[C@@H](Cc1ccccc1)C(=O)N[C@H](C(=O)N[C@@H](Cc1cnc[nH]1)C(=O)N[C@@H](CCCN=C(N)N)C(=O)N[C@@H](Cc1ccccc1)C(N)=O)[C@@H](C)CC)[C@@H](C)CC` [IKQLLHFFQRFGGGFIKHFIHRF] was tested, and the MIC [32] was 2.78 µM (≈ 8 µg/mL), the MIC [33] was ≥ 43.5 µM and the MIC [34] was 11.1 µM (≈ 32 µg/mL). It also gave an MIC (Staphylococcus aureus) of 21.7 µM (≈ 62.5 µg/mL), an MIC [35] of 5.57 µM (≈ 16 µg/mL) and an MIC [36] of 11.1 µM (≈ 32 µg/mL).
